Columns and labels:
[1] = Plasma protein binding by equilibrium dialysis, human plasma; format: in vitro ADME; conditions: pH 7.4, 37° C., read-out: plasma protein binding (% Bound)
Method: (§1) Membranes from Harvard/Amika with a molecular weight cutoff of 5,000 were rinsed with dH2O then placed in pH 7.4 PBS supplied by Gibco. The membranes were allowed to soak for 1 hour. A stock of the test article was pooled with Warfarin, Atropine at 2 mM in DMSO. The test article was then dosed into human plasma in sodium citrate, Rat Plasma, and Mouse Plasma to a final 10 μM concentration (0.5% DMSO v/v).
(§2) The pre-soaked membranes were then placed into dialysis chambers. 500 μL of PBS was added to one side of the chamber, and 500 μL of the Matrix containing the test article was added to the other side of the chamber. The chambers were then placed into an enclosed, heated rocker, which was pre-warmed to 37° C. and allowed to reach equilibrium for at least 22 hours. After 22 hours both sides were sampled. 100 μL of the donor side was added to 500 μL of PBS. 100 μL of the PBS side was added to 20 μL of fresh matrix. Samples then were crashed with 1:1 Acetonitrile and centrifuged at 10,000 RPM for 10 minutes. […]
(§3) Standards were prepared in a 1:5 plasma:PBS mixture at 5, 1.5, 0.5, 0.15, 0.05, 0.015 and 0.005 μM concentrations. […] Protein binding values were calculated as follows: % Bound=[(Concentration in Donor−Concentration in Receiver)/(Concentration in Donor)]×100. % Recovery=[(Concentration in donor+Concentration in Receiver)]/(Concentration in Normal Initial)]×100

Sprague-Dawley male rats = assay: Thermal hyperalgesia (carrageenan, paw withdrawal latency); format: in vivo; conditions: rat, 30 mg/kg, two hours after administration
Method: Sprague-Dawley male rats obtained from Charles River, San Diego, Calif. were purchased at 150-175 g, and held for at least one week before testing. Pain was induced by injecting 100 μl of 2% carrageenan in 0.9% saline sub-Q into the right ventral hindpaw while the animals were under isofluorane anesthesia. Animals were then dosed one hour after with a concentration of 30 mg/kg of Compound 1. Two hours later, after acclimatizing in testing chambers for 20-30 minutes, animals were tested on both hindpaws for latency of paw withdrawal using a thermal testing apparatus. 2-3 trials were conducted with 10 minutes between trials. […] The figure depicts the time in seconds until animals withdraw from thermal stimulation at baseline and two hours after administration of delivery vehicle, control compound, and the dose of 30 mg/kg of Compound 1.

[2] = Plasma protein binding by equilibrium dialysis, rat plasma; format: in vitro ADME; conditions: pH 7.4, 37° C., read-out: plasma protein binding (% Bound)
Method: as §1, §2, §3

fraction unbound at 22 h, 10 μM [1]: < 0.001
fraction unbound at 22 h, 10 μM [2]: < 0.001
SMILES: FC(F)(F)c1ccc(Nc2ncnc3c2CCN(c2ncccc2Cl)C3)cc1 [Compound 1]
latency of paw withdrawal (reversal of thermal hyperalgesia) (Sprague-Dawley male rats): significantly increased latency of paw withdrawal
